Measurements from patent US4486586A, “Cephalosporin derivatives” (Bristol-Myers Company, priority 1983, dated 1984).
≈ marks a conversion by molar mass, not a printed value.

Assays:
[1] = tested on: Penicillinresistant S. aureus; assay: MIC, two-fold serial agar dilution in Mueller-Hinton agar, group (G+)-Ib; type: cell-based; conditions: Staphylococcus aureus, penicillin-resistant S. aureus, 5 strains, read-out: Geometric Mean of MIC, (G+)-Ib
Description: (§1) In the primary evaluation of the compounds of this invention, the Minimum Inhibitory Concentrations (MIC's) of the compounds were determined by the two-fold serial agar dilution method in Mueller-Hinton agar against 32 strains of test organisms in six groups.
(G+)Ib: Penicillinresistant S. aureus (5

[2] = tested on: M. morganii, Ent. cloacae and Ser. marcescens; assay: MIC, two-fold serial agar dilution in Mueller-Hinton agar, group (G-)-II; type: cell-based; conditions: 5 strains, read-out: Geometric Mean of MIC, (G-)-II
Description: as §1
(G-)II: M. morganii (1 strain), Ent. cloacae (2 strains) andSer.

[3] = tested on: Cephalothinresistant E. coli and Kl. pneumoniae; assay: MIC, two-fold serial agar dilution in Mueller-Hinton agar, group (G-)-Ib; type: cell-based, E. coli (3 strains) and Kl. pneumoniae (3 strains); conditions: read-out: Geometric Mean of MIC, (G-)-Ib
Description: as §1
(G-)Ib: Cephalothinresistant E. coli (3 strains) and Kl. pneumoniae (3

[4] = tested on: Cephalothinsensitive E. coli, Kl. pneumoniae and Pr. mirabilis; assay: MIC, two-fold serial agar dilution in Mueller-Hinton agar, group (G-)-Ia; type: cell-based; conditions: cephalothin-sensitive E. coli, 5 strains, read-out: Geometric Mean of MIC, (G-)-Ia
Description: as §1
(G-)Ia: Cephalothinsensitive E. coli (2 strains), Kl. pneumoniae (1
strain) and Pr. mirabilis (2 strains)

[5] = tested on: Penicillinsensitive S. aureus; assay: MIC, two-fold serial agar dilution in Mueller-Hinton agar, group (G+)-Ia; type: cell-based; conditions: Staphylococcus aureus, penicillin-sensitive S. aureus, 5 strains, read-out: Geometric Mean of MIC, (G+)-Ia
Description: as §1

Ps. aeruginosa = assay: MIC, two-fold serial agar dilution in Mueller-Hinton agar, group (G-)-III; type: cell-based; conditions: Pseudomonas aeruginosa, 7 strains, read-out: Geometric Mean of MIC, (G-)-III
Description: as §1
(G-)III: Ps. aeruginosa (7 strains)

SMILES | MIC [1] [µg/mL] | MIC [2] [µg/mL] | MIC [3] [µg/mL] | MIC [4] [µg/mL] | MIC [5] [µg/mL] | MIC (Ps. aeruginosa) [µg/mL]
CO/N=C(\C(=O)NC1C(=O)N2C(C(=O)[O-])=C(/C=C/C[N+]3(C)CCCC3)CS[C@H]12)c1csc(N)n1 (stereo partly shown) [Compound I-1A, 7-[(Z)-2-(2-Aminothiazol-4-yl)-2-methoxyiminoacetamido]-3-[(E)-3-(1-methylpyrrolidinio)-1-propen-1-yl]-3-cephem-4-carboxylate] | 0.59 (≈ 1.16 µM) | 0.13 (≈ 0.257 µM) | 0.11 (≈ 0.217 µM) | 0.021 (≈ 0.0415 µM) | 0.22 (≈ 0.434 µM) | 5.1 (≈ 10.1 µM)
CO/N=C(\C(=O)NC1C(=O)N2C(C(=O)[O-])=C(/C=C/C[n+]3ccccc3)CS[C@H]12)c1csc(N)n1 (stereo partly shown) [Compound I-1B, 7-[(Z)-2-(2-Aminothiazol-4-yl)-2-methoxyiminoacetamido]-3-[(E)-3-pyridinio-1-propen-1-yl]-3-cephem-4-carboxylate] | 0.52 (≈ 1.04 µM) | 0.1 (≈ 0.2 µM) | 0.05 (≈ 0.0999 µM) | 0.012 (≈ 0.024 µM) | 0.2 (≈ 0.4 µM) | 5.7 (≈ 11.4 µM)
CO/N=C(\C(=O)NC1C(=O)N2C(C(=O)[O-])=C(/C=C/C[N+](C)(C)C)CS[C@H]12)c1csc(N)n1 (stereo partly shown) [Compound I-1D, 7-[(Z)-2-(2-Aminothiazol-4-yl)-2-methoxyiminoacetamido]-3-[(E)-3-trimethylammonio-1-propen-1-yl]-3-cephem-4-carboxylate] | 0.59 (≈ 1.23 µM) | 0.1 (≈ 0.208 µM) | 0.074 (≈ 0.154 µM) | 0.0093 (≈ 0.0194 µM) | 0.17 (≈ 0.354 µM) | 3.1 (≈ 6.45 µM)
CO/N=C(\C(=O)NC1C(=O)N2C(C(=O)[O-])=C(/C=C/C[n+]3cccc(N)c3)CS[C@H]12)c1csc(N)n1 (stereo partly shown) [Compound I-1E, 7-[(Z)-2-(2-Aminothiazol-4-yl)-2-methoxyiminoacetamido]-3-[(E)-3-(3-aminopyridinio)-1-propen-1-yl]-3-cephem-4-carboxylate] | 0.3 (≈ 0.582 µM) | 0.043 (≈ 0.0834 µM) | 0.05 (≈ 0.097 µM) | < 0.0053 | 0.1 (≈ 0.194 µM) | 5.7 (≈ 11.1 µM)
CO/N=C(\C(=O)NC1C(=O)N2C(C(=O)[O-])=C(/C=C/C[N+]3(C)CC=CC3)CS[C@H]12)c1csc(N)n1 (stereo partly shown) [Compound I-1F, 7-[(Z)-2-(2-Aminothiazol-4-yl)-2-methoxyiminoacetamido]-3-[(E)-3-(1-methyl-3-pyrrolinio)-1-propen-1-yl]-3-cephem-4-carboxylate] | 0.39 (≈ 0.773 µM) | 0.1 (≈ 0.198 µM) | 0.074 (≈ 0.147 µM) | 0.014 (≈ 0.0277 µM) | 0.15 (≈ 0.297 µM) | 3.1 (≈ 6.14 µM)
CO/N=C(\C(=O)NC1C(=O)N2C(C(=O)[O-])=C(/C=C/C[n+]3ccsc3SC)CS[C@H]12)c1csc(N)n1 (stereo partly shown) [Compound I-1G, 7-[(Z)-2-(2-Aminothiazol-4yl)-2-methoxyiminoacetamido]-3-[(E)-3-(2-methylthio-3-thiazolio)-1-propen-1-yl]-3-cephem-4-carboxylate] | 0.39 (≈ 0.706 µM) | 0.085 (≈ 0.154 µM) | 0.074 (≈ 0.134 µM) | 0.014 (≈ 0.0253 µM) | 0.15 (≈ 0.271 µM) | 7.6 (≈ 13.8 µM)
CO/N=C(\C(=O)NC1C(=O)N2C(C(=O)[O-])=C(/C=C/C[n+]3ccsc3C)CS[C@H]12)c1csc(N)n1 (stereo partly shown) [Compound I-1H, 7-[(Z)-2-(2-Aminothiazol-4-yl)-2-methoxyiminoacetamido]-3-[(E)-3-(2-methyl-3-thiazolio)-1-propen-1-yl]-3-cephem-4-carboxylate] | 0.3 (≈ 0.576 µM) | 0.074 (≈ 0.142 µM) | 0.05 (≈ 0.096 µM) | 0.0093 (≈ 0.0179 µM) | 0.1 (≈ 0.192 µM) | 5.7 (≈ 10.9 µM)
CO/N=C(\C(=O)NC1C(=O)N2C(C(=O)[O-])=C(/C=C/C[n+]3ccc(N)cc3)CS[C@H]12)c1csc(N)n1 (stereo partly shown) [Compound I-1I, 7-[(Z)-2-(2-Aminothiazol-4-yl)-2-methoxyiminoacetamido]-3-[(E)-3-(4-amino-1-pyridinio)-1-propen-1-yl]-3-cephem-4-carboxylate] | 0.34 (≈ 0.659 µM) | 0.15 (≈ 0.291 µM) | 0.1 (≈ 0.194 µM) | < 0.016 | 0.11 (≈ 0.213 µM) | > 25
CO/N=C(\C(=O)NC1C(=O)N2C(C(=O)[O-])=C(/C=C/C[n+]3ccc(C(N)=O)cc3)CS[C@H]12)c1csc(N)n1 (stereo partly shown) [Compound I-1J, 7-[(Z)-2-(2-Aminothiazol-4-yl)-2-methoxyiminoacetamido]-3-[(E)-3-(4-carbamoyl-1-pyridinio)-1-propen-1-yl]-3-cephem-4-carboxylate] | 0.61 (≈ 1.12 µM) | 0.13 (≈ 0.239 µM) | 0.11 (≈ 0.202 µM) | 0.016 (≈ 0.0294 µM) | 0.26 (≈ 0.478 µM) | 5.7 (≈ 10.5 µM)
CC(C)(O/N=C(\C(=O)NC1C(=O)N2C(C(=O)[O-])=C(/C=C/C[N+]3(C)CCCC3)CS[C@H]12)c1csc(N)n1)C(=O)O (stereo partly shown) [Compound I-4A, 7-[(Z)-2-(2-Aminothiazol-4-yl)-2-(2-carboxy-2-propoxyimino)acetamido]-3-[(E)-3-(1-methylpyrrolidinio)-1-propen-1-yl]-3-cephem-4-carboxylate] | 4.1 (≈ 7.09 µM) | 0.17 (≈ 0.294 µM) | 0.2 (≈ 0.346 µM) | 0.036 (≈ 0.0622 µM) | 2.3 (≈ 3.97 µM) | 2.3 (≈ 3.97 µM)
CC(C)(O/N=C(\C(=O)NC1C(=O)N2C(C(=O)[O-])=C(/C=C/C[n+]3ccccc3)CS[C@H]12)c1csc(N)n1)C(=O)O (stereo partly shown) [Compound I-4B, 7-[(Z)-2-(2-Aminothiazol-4-yl)-2-(2-carboxy-2-propoxyimino)acetamido]-3-[(E)-3-pyridinio-1-propen-1-yl]-3-cephem-4-carboxylate] | 15 (≈ 26.2 µM) | 0.41 (≈ 0.716 µM) | 0.37 (≈ 0.646 µM) | 0.046 (≈ 0.0803 µM) | 6 (≈ 10.5 µM) | 5 (≈ 8.73 µM)
CSc1scc[n+]1C/C=C/C1=C(C(=O)[O-])N2C(=O)C(NC(=O)/C(=N\OC(C)(C)C(=O)O)c3csc(N)n3)[C@H]2SC1 (stereo partly shown) [Compound I-4G, 7-[(Z)-2-(2-Aminothiazol-4-yl)-2-(2-carboxy-2-propoxyimino)acetamido]-3-[(E)-3-(2-methylthio-3-thiazolio)-1-propen-1-yl]-3-cephem-4-carboxylate] | 5.4 (≈ 8.64 µM) | 0.2 (≈ 0.32 µM) | 0.22 (≈ 0.352 µM) | 0.021 (≈ 0.0336 µM) | 1.8 (≈ 2.88 µM) | 3.5 (≈ 5.6 µM)
C[N+]1(C/C=C/C2=C(C(=O)[O-])N3C(=O)C(NC(=O)/C(=N\OC4(C(=O)O)CCC4)c4csc(N)n4)C3SC2)CCCC1 (stereo not shown) [Compound I-5A] | 4.7 (≈ 7.96 µM) | 0.26 (≈ 0.44 µM) | 0.23 (≈ 0.389 µM) | 0.038 (≈ 0.0643 µM) | 1.8 (≈ 3.05 µM) | 2.6 (≈ 4.4 µM)
Nc1nc(/C(=N/OC2(C(=O)O)CCC2)C(=O)NC2C(=O)N3C(C(=O)[O-])=C(/C=C/C[n+]4ccccc4)CS[C@H]23)cs1 (stereo partly shown) [Compound I-5B, 7-[(Z)-2-(2-Aminothiazol-4-yl)-2-(1-carboxycyclobut-1-oxyimino)acetamido]-3-[(E)-3-pyridinio-1-propen-1-yl]-3-cephem-4-carboxylate] | 4.7 (≈ 8.04 µM) | 0.17 (≈ 0.291 µM) | 0.23 (≈ 0.393 µM) | 0.019 (≈ 0.0325 µM) | 1.6 (≈ 2.74 µM) | 2 (≈ 3.42 µM)
Nc1ccc[n+](C/C=C/C2=C(C(=O)[O-])N3C(=O)C(NC(=O)/C(=N\OC4(C(=O)O)CCC4)c4csc(N)n4)[C@H]3SC2)c1 (stereo partly shown) [Compound I-5E, 7-[(Z)-2-(2-Aminothiazol-4-yl)-2-(1-carboxycyclobut-1-oxyimino)acetamido]-3-[(E)-3-(3-amino-1-pyridinio)-1-propen-1-yl]-3-cephem-4-carboxylate] | 3.1 (≈ 5.17 µM) | 0.15 (≈ 0.25 µM) |  | 0.016 (≈ 0.0267 µM) | 1.2 (≈ 2 µM) | 1.9 (≈ 3.17 µM)
CSc1scc[n+]1C/C=C/C1=C(C(=O)[O-])N2C(=O)C(NC(=O)/C(=N\OC3(C(=O)O)CCC3)c3csc(N)n3)[C@H]2SC1 (stereo partly shown) [Compound I-5G, 7-[(Z)-2-(2-Aminothiazol-4-yl)-2-(1-carboxycyclobut-1-oxyimino)acetamido]-3-[(E)-3-(2-methylthio-3-thiazolio)-1-propen-1-yl]-3-cephem-4-carboxylate] | 2.8 (≈ 4.4 µM) | 0.13 (≈ 0.204 µM) |  | 0.014 (≈ 0.022 µM) | 0.84 (≈ 1.32 µM) | 1.9 (≈ 2.98 µM)
